We go through 2 molecules from ChEMBL document CHEMBL1130659, “Macrolide biosynthesis: a single cytochrome P450, PicK, is responsible for the hydroxylations that generate methymycin, neomethymycin, and picromycin in Streptomyces venezuelae” (Bioorg Med Chem Lett, 1998).

SMILES strings stand for the structures.

What all share (assay type): ADME
Data set [1] in a line: Michaelis behavior of the enzyme (PicK/6-His).
A short description of data set [2]: Ratio of kcat to Km was evaluated.
Data set [3] in a line: Catalytic constant expressed as Kinetic behavior of enzyme (PicK/6-His).
The nature of data set [4]: Kinetic behavior of the enzyme (PicK/6-His) was evaluated.

As to `CC[C@H]1OC(=O)[C@H](C)[C@@H](O[C@@H]2O[C@H](C)C[C@H](N(C)C)[C@H]2O)[C@@H](C)C[C@@H](C)C(=O)/C=C/[C@H]1C`, the values for the Km in data set [1] and in data set [4] were 130 µM and 2200 µM, respectively. Moreover, the kcat/Km in data set [2] came to 8000 M⁻¹ s⁻¹. Further, the k cat in data set [3] was determined as 1.1 s⁻¹.
The like results for `CC[C@H]1OC(=O)[C@H](C)C(=O)[C@H](C)[C@@H](O[C@@H]2O[C@H](C)C[C@H](N(C)C)[C@H]2O)[C@@H](C)C[C@@H](C)C(=O)/C=C/[C@H]1C` were, in that order, 88 µM, 440 µM, 23000 M⁻¹ s⁻¹ and 2 s⁻¹.
